# Results taken from a melting point compilation (Tetko et al.; mined from patent text by program, amines drawn as free bases though some values may be those of a salt).
row,Structure (SMILES),melting point [°C]
1,COC(=O)C1=C(C)NC(C)=C(C(=O)OCC2CCCO2)C1c1ccccc1Br (stereo not given),170 to 172
2,Nc1nc2nc(SCc3ccccc3)nc(Cl)c2s1,217 to 218
3,O=C1c2ccccc2C(O)(c2ccc(Cl)cc2)N1Cc1ccc(Cl)cc1 (stereo not given),156 to 157
4,O=C(CCc1ccccc1)N[C@H](Cc1ccc(C(F)(F)F)cc1)[C@@H](O)c1ccc(F)c(F)c1 (racemic),114 to 115
5,CC(=O)OCCc1ccc2sc(S(N)(=O)=O)cc2c1,120 to 122
6,O=C(O)/C=C/C=C(c1ccc(-c2ccccc2)cc1)c1ccc(-c2ccccc2)cc1,253 to 255
7,CCN(CC)C(=O)CCc1cc2ccccc2c(-c2ccccc2)n1,70
8,O=C(O)c1cccc(COc2ccccc2Cl)c1COc1ccccc1Cl,107 to 109
9,CCCn1cncc1CSc1ccc(NC(=O)C(F)(F)F)cc1,82 to 84
10,CC(C)(C)OC(=O)N1CCC(C(=O)NCCC(=O)OCc2ccccc2)C1 (stereo not given),83 to 84
11,Cc1c(NC(=O)c2ccc(CC(=O)C3CCOC3)cc2)ccc2cc(CN3CCCC3)cnc12 (stereo not given),142 to 143
12,COc1cccc(-c2c(Cl)c(CN3CCCCC3)nc3sc4c(c23)CCN(Cc2ccccc2)C4)c1OC,173 to 174
13,O=C(NCCNCCNC(=O)OCc1ccccc1)OCc1ccccc1,73 to 75
14,O=C(NCc1ccn(-c2cc3nc(C(=O)O)c(=O)[nH]c3cc2C(F)(F)F)c1)Nc1ccc(F)cc1,168 to 170
15,CC(C)[C@@H]1C[C@H](O)[C@H](CC2CCCCC2)NC1=O,97 to 99
16,CCC12CCC3C4CCC(=O)C=C4C(Cl)CC3C1C(OC(C)=O)CC2=O (stereo not given),115
17,Cc1cc(CC(=O)O)n(C)c1C(=O)c1ccc2n1CCC2,132 to 134
18,CC(=O)CCN1C(=O)c2ccccc2S1(=O)=O,118 to 119
19,COc1ccc([C@@H]2CN(C)CC[C@@H]2NC(=S)c2ccc(C)cc2)cc1OC (relative stereo),144 to 146
20,Cc1cc(N)ncc1I,198 to 200
21,CC1(C)OC[C@H](COc2ccc(C(=O)c3ccc([N+](=O)[O-])cc3)cc2)O1,92 to 93
22,CCCCNc1cccc2c1C(=O)c1ccccc1C2=O,78 to 79
23,COC1=C(OC)C(=O)c2c(cccc2S(=O)c2ccccc2)C1=O (stereo not given),165 to 167
24,CC(C)(C)c1cc(N=C=O)no1,165 to 167

row,Structure (SMILES),melting point [°C]
1,CCOC(=O)C(C(=O)C(C)C)C1c2ccccc2C(=O)N1c1ccc2ccc(Cl)nc2n1 (stereo not given),146
2,CCCCOc1ccc2[nH]c(C(=O)O)cc2c1,153
3,Cc1ccc2c(=O)c3cc(C(F)(F)F)ccc3sc2c1,174 to 178
4,OCCc1c[nH]c(-c2ccccc2OCc2ccccc2)n1,131 to 133
5,Cc1cc(C)c2nc(CCCCl)n(-c3ccc(C(C(=O)O)C4CCCC4)cc3)c2n1 (stereo not given),214
6,CC(C)[C@H](NC(=O)OCc1csc(N(C)C)n1)C(=O)N[C@@H](Cc1ccccc1)C[C@H](O)[C@H](Cc1ccccc1)NC(=O)OCc1cncs1,162 to 165
7,COC(=O)c1cc(N)c(NS(C)(=O)=O)c(CO)c1,150 to 155
8,CCOC(=O)c1c(CN(CCC(C)C)CCC(C)C)nc2cc(OC)c(OC)cc2c1-c1ccc(OC)c(OC)c1,114 to 115
9,Cn1ncc2c(c1=O)OCCNC2Cc1ccccc1 (stereo not given),113 to 115
10,Cn1nc(-c2ccccc2)c(S(=O)(=O)c2ccccc2)c1-c1ccccc1,135 to 141
11,CC(=O)Nn1cnn(C2CCc3ccccc3C2)c1=S (stereo not given),199 to 201
12,O=P(O)(O)C(Cc1cnsn1)P(=O)(O)O,> 300
13,CC(C)=CC(=O)N1CC(NC(=O)Nc2cccc(C(=O)O)c2)C(=O)N(CC(=O)c2ccccc2C)c2cc(C)ccc21 (stereo not given),240 to 242
14,CCCN(CCC)CCCCCOc1ccc2oc(-c3ccc(OC)cc3)cc(=O)c2c1,63 to 64
15,"CC1(C)CC(c2ccccc2)Nc2c(C(=O)O)cnn21 (single isomer, unassigned; (-))",205 to 206
16,CCCCC=C1SC(=S)N(N=c2sc3ccccc3s2)C1=O,210 to 212
17,CC(=O)N1CC=C(C2=C(C#N)C(c3cccc4nonc34)c3c[nH]nc3N2)CC1 (stereo not given),237
18,COc1cc(OC)c2c(=O)[nH]c(-c3ccc(OCCN(C(=O)OC(C)(C)C)C(C)C)c(-c4ccc(S(C)=O)cc4)n3)nc2c1 (stereo not given),114 to 116
19,COc1cc(OC)c2c(=O)[nH]c(-c3ccc(N4CCN(C)CC4)cc3)nc2c1,252 to 254
20,CC(Cn1ncc2ccc3c(c21)NC(=O)CO3)NC(=O)OC(C)(C)C (stereo not given),147 to 148
21,CC(C)N(C(=O)CBr)C(C)C,64 to 65.5
22,O=C(NC1CCCCC1)c1ccc(F)c2c1CC(N(CCCc1c[nH]c3ccc(F)cc13)C1CCC1)CO2 (stereo not given),134
23,Nc1ccc2ncnc(Nc3cccc(C(F)(F)F)c3)c2c1,190 to 192
24,CC(=Cc1ccccc1)c1ccc2c(c1)C(C)(C)C(O)C2(C)C (stereo not given),63 to 67

row,Structure (SMILES),melting point [°C]
1,CCCOCCOc1ccc(-c2ccc3c(c2)C=C(C(=O)Nc2ccc(CN(C)C4CCOCC4)cc2)CCS3(=O)=O)cc1C,192 to 195
2,COc1c(C)c(N2CCN(c3ccc(F)cc3)CC2)c(C)c2c1OC(C)C2 (stereo not given),114 to 116
3,O=C(Nc1ccc(O)cc1)Nn1cnc2ccccc2c1=O,220 to 223
4,Cn1c(/C=C/C(=O)O)c(-c2ccccc2)c2ccccc2c1=O,266 to 268
5,COc1ccc(-c2ccc(N3CCCN(c4ccc(-c5ccc(OC)cc5)cn4)CC3)nc2)cc1,254 to 256
6,COCCc1nc2c(N)nc3ccccc3c2n1CCCNC(=O)NC1CCCCC1,179 to 180
7,CN1CCN(c2nccc(Oc3ccc(NC(=O)c4cc(F)cc(N5CCCCC5)c4)c4ccccc34)n2)CC1,182 to 184
8,CC1(c2ccc3c(c2)CC(=O)N3CC(F)(F)F)OCCO1,87 to 89
9,CCOC(=O)c1c(C)cc(OCc2cccc(OCc3ccc4ccccc4n3)c2)cc1O,127 to 128
10,N#C[C@@H]1C[C@H](F)CN1C(=O)CCl,97 to 100
11,CC(C)(O)/C=C\C(C)(C)O,64
12,OC(c1ccc(F)cc1)(c1ccc(F)cc1)C1CCN(CCCOc2ccc(Cl)cc2)CC1,92 to 93
13,CCCc1ccc(C(O)(c2c(C)cc(C)c(C)c2OC)C(C)C)cc1 (stereo not given),59 to 60
14,c1ccc2c(c1)ncc1nc(C3CCCCCC3)[nH]c12,225 to 226
15,COC(=O)c1cccc(-c2cn(C)cc(-c3ccc(C)cc3)c2=O)c1,85 to 88
16,NC(=O)c1ccc(S(=O)(=O)NCCC2CCC(CC(=O)O)CC2)cc1 (stereo not given),172 to 174
17,O=S1(=O)O[C@H](COCc2ccccc2)CC[C@@H](COCc2ccccc2)O1,57 to 59
18,N#Cc1ccc(NC(=O)NCCCN2CCN(CCCc3ccc(Cl)cc3)CC2)cc1,219 to 221
19,CN1CCN(c2c(F)c(NCc3ccccc3)c3c(=O)c(C(=O)O)cn(C4CC4)c3c2F)CC1,132 to 133
20,CC#CCOc1cc(Cc2cccc(F)c2)ncn1,51.5
21,COc1ccc(CSCC(C)C(=O)O)cc1 (stereo not given),74 to 82
22,CN1C(=O)C2(COc3cc4c(cc32)OCO4)c2ccccc21 (stereo not given),142 to 144
